Test systems include A498 renal; CAKI-1 renal; HCC-2998 colon; HL-60(TB) leukemia; HOP-62 NSCLC; LOX IMVI melanoma; MDA-MB-435; OVCAR-3 ovarian; PC-3 prostate; UO-31 renal.
Holding throughout (test): growth of human tumour cells (NCI), 48 h

“And” between values parts separate entries of the source, which are not always exact repeats. Identical values can stand only once.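 All cell lines were grown in 96-well plates and treated with compound for 48 hours. The concentration for 50% growth inhibition is given as GI50. TGI: total growth inhibition.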

In the case of `CC[C@H](C)[C@H](NC(=O)[C@H]1CCCCN1C)C(=O)N(C)[C@H](C[C@@H](OC(C)=O)c1nc(C(=O)N[C@@H](Cc2ccccc2)C[C@H](C)C(=O)O)cs1)C(C)C`, the GI50 with A498 renal is 0.548 nM and < 1.65 nM; in the assay on CAKI-1 renal it was 1.97 nM; in the assay with HCC-2998 colon it was 1.3 nM and 1.65 nM; in the assay with HL-60(TB) leukemia, 0.394 nM and < 1.65 nM; with HOP-62 NSCLC, 0.909 nM and 1.65 nM; in the assay on LOX IMVI melanoma, 0.609 nM and 1.65 nM. For the same compound, the GI50 is 0.0749 nM and < 1.65 nM with MDA-MB-435; 0.234 nM and < 1.65 nM with OVCAR-3 ovarian; 0.339 nM and 1.65 nM in the assay with PC-3 prostate; 7.88 nM and 1.65 nM in the assay on UO-31 renal. Also, the TGI with A498 renal was less than 1.65 nM; in the assay on HCC-2998 colon it was greater than 16500 nM; in the assay on HL-60(TB) leukemia, 2.67 nM and < 1.65 nM; with HOP-62 NSCLC, greater than 16500 nM; with LOX IMVI melanoma it was greater than 16500 nM; in the assay on MDA-MB-435, 0.386 nM and < 1.65 nM. The TGI was 11.9 nM and < 1.65 nM in the assay with OVCAR-3 ovarian; greater than 16500 nM in the assay on PC-3 prostate; greater than 16500 nM in the assay on UO-31 renal.
For `Cn1cc(C2=C(c3cn(CCCCCSC(=N)N)c4ccccc34)C(=O)NC2=O)c2ccccc21`, the GI50 with A498 renal is 3650 nM; in the assay on CAKI-1 renal, 4030 nM; with HCC-2998 colon it was 3560 nM; in the assay on HL-60(TB) leukemia it was 3620 nM; with HOP-62 NSCLC, 3960 nM; in the assay on LOX IMVI melanoma, 2920 nM. The GI50 with MDA-MB-435 was 1060 nM; with OVCAR-3 ovarian, 3220 nM; in the assay with PC-3 prostate it was 2680 nM; in the assay on UO-31 renal, 3620 nM. For the same compound, the TGI with A498 renal amounted to 6970 nM; in the assay on CAKI-1 renal it was 7940 nM; in the assay with HCC-2998 colon, 7190 nM; with HL-60(TB) leukemia, 7850 nM; with HOP-62 NSCLC, 7590 nM; with LOX IMVI melanoma it was 6480 nM. Further, the TGI with MDA-MB-435 is 4070 nM; with OVCAR-3 ovarian, 6550 nM; in the assay on PC-3 prostate, 6020 nM; in the assay on UO-31 renal, 7290 nM.
For `CN(Cc1cnc2nc(N)nc(N)c2n1)c1ccc(C(=O)NC(CCC(=O)O)C(=O)O)cc1Br` (configuration not stated), the GI50 with A498 renal, with CAKI-1 renal, with HCC-2998 colon, in the assay on HL-60(TB) leukemia, with HOP-62 NSCLC and in the assay on LOX IMVI melanoma was less than 10 nM throughout. Also, the GI50 with MDA-MB-435, in the assay with OVCAR-3 ovarian, with PC-3 prostate and in the assay with UO-31 renal was less than 10 nM each time. The TGI in the assay with A498 renal was 4710 nM; in the assay with HL-60(TB) leukemia, greater than 100000 nM; with LOX IMVI melanoma, 2100 nM; in the assay with MDA-MB-435, 5150 nM; in the assay with OVCAR-3 ovarian it was 4430 nM; in the assay on PC-3 prostate it was greater than 100000 nM.
With `COC(=O)CSSCc1ccc([N+](=O)[O-])cc1`, the TGI in the assay on A498 renal amounted to 45700 nM; in the assay on CAKI-1 renal it was 8090 nM; in the assay with HCC-2998 colon, 41000 nM; in the assay on HL-60(TB) leukemia, 76200 nM; in the assay with HOP-62 NSCLC, 42400 nM; in the assay with LOX IMVI melanoma, 30300 nM. Further, the TGI in the assay on MDA-MB-435 came out at 31300 nM; in the assay on OVCAR-3 ovarian it was 46500 nM; with PC-3 prostate, 81000 nM; in the assay on UO-31 renal, 27900 nM.
In the case of `O=C1/C=C/[C@@H](O)[C@@H]2C[C@@H](O)C[C@H]2/C=C/CCC[C@H](C(F)(F)F)O1`, the GI50 in the assay with A498 renal was 70.5 nM; in the assay on CAKI-1 renal, 178 nM; with HCC-2998 colon it was 1140 nM; with HL-60(TB) leukemia, 243 nM; in the assay on HOP-62 NSCLC, 2140 nM; with LOX IMVI melanoma, 137 nM. The GI50 in the assay on MDA-MB-435 was 360 nM; in the assay on OVCAR-3 ovarian it was 103 nM; with PC-3 prostate, 502 nM; with UO-31 renal it was 81.3 nM. In addition, the TGI is 715 nM in the assay on A498 renal; 27400 nM in the assay with CAKI-1 renal; 9200 nM in the assay on HCC-2998 colon; 605 nM with HL-60(TB) leukemia; greater than 100000 nM with HOP-62 NSCLC; 388 nM in the assay on LOX IMVI melanoma. In addition, the TGI with MDA-MB-435 was greater than 44500 nM; with OVCAR-3 ovarian, 464 nM; with PC-3 prostate, greater than 100000 nM; in the assay with UO-31 renal, 2250 nM.
On to `CCCCCCCCCCCCCC[C@@H](O)[C@H]1CC[C@H]([C@H]2CC[C@H]([C@H](O)CCCCCC[C@@H](O)CC3=C[C@H](C)OC3=O)O2)O1`, for which the GI50 in the assay on A498 renal is 3270 nM; with CAKI-1 renal, 1750 nM; in the assay on HL-60(TB) leukemia it was greater than 25000 nM; in the assay with HOP-62 NSCLC it was 2740 nM; in the assay with OVCAR-3 ovarian, 1530 nM; in the assay with PC-3 prostate, 2130 nM. In addition, the GI50 in the assay with UO-31 renal is 1210 nM. Also, the TGI in the assay with A498 renal is greater than 25000 nM; in the assay on CAKI-1 renal it was 5010 nM and > 25000 nM; with HCC-2998 colon it was greater than 25000 nM; with HL-60(TB) leukemia, 7140 nM and > 25000 nM; in the assay on HOP-62 NSCLC, greater than 25000 nM; with LOX IMVI melanoma, 2560 nM and > 25000 nM. Also, the TGI in the assay with MDA-MB-435 was greater than 25000 nM; in the assay with OVCAR-3 ovarian, 3210 nM and > 25000 nM; in the assay with PC-3 prostate, 7310 nM and > 25000 nM; with UO-31 renal, 2590 nM and > 25000 nM.
Regarding `CCOC(=O)COc1ccc2c(C)cc(=O)oc2c1`, the TGI in the assay on A498 renal, in the assay on CAKI-1 renal, with HCC-2998 colon, in the assay on HL-60(TB) leukemia, in the assay on HOP-62 NSCLC and in the assay on LOX IMVI melanoma was greater than 100000 nM in each case. Moreover, the TGI in the assay with MDA-MB-435, with OVCAR-3 ovarian, in the assay on PC-3 prostate and in the assay on UO-31 renal was greater than 100000 nM in each case.

The values above are taken from PubChem BioAssay (NCI).
